≈ marks a conversion by molar mass, not a printed value.
Test system: Mycobacterium tuberculosis H37Rv (ATCC #27294)
Experiment: Minimum Inhibitory Concentration (MIC50) determination
Format: cell-based
Conditions: 120 h
Protocol: Mycobacterium tuberculosis H37Rv (ATCC #27294) (Mtb) strain was maintained in Middlebrook 7H9 broth medium supplemented with 0.05% Tween 80 and 10% ADS supplement. ADS supplement contains 5% bovine serum albumin fraction V. 2% D-dextrose and 0.8% of sodium chloride. Middlebrook 7H11 agar medium supplemented with 10% OADC (oleic acid, albumin, dextrose and catalase) was used as solid media for growing Mtb. Stock solutions of the compounds were prepared using 90% DMSO.
Minimum Inhibitory Concentration (MIC50) Determination
In Table 5 below, MIC50 is defined as the lowest concentration of the compound that inhibited 50% growth of the wild type strain compared to untreated controls. Test compounds were two or three fold serially diluted in duplicates and spotted by mosquito HTS to 384-well clear plates, resulting in 10 dilutions of each compound. A volume of 50 μl of Mtb culture (final OD600 of 0.02) was added to each well, and the assay plates were incubated at 37° C. for 5 days. Growth of bacteria was measured by reading absorbance at 600 nm using a Spectramax M2 spectrophotometer. MIC50 values were determined by using Activity Base software.

Cc1cc(C)c2cc(C(=O)N[C@@H]3CCC[C@@H]3C)[nH]c2c1 [Example 4K, 4,6-Dimethyl-N-((1R,2S)-2-methylcyclopentyl)-1H-indole-2-carboxamide]
MIC50: 0.69 µM (≈ 0.187 µg/mL)

CC1(C)CCC(NC(=O)c2cc3c(Cl)cc(Cl)cc3[nH]2)CC1 [Example 1A, 4,6-dichloro-N-(4,4-dimethylcyclohexyl)-1H-indole-2-carboxamide]
MIC50: 0.015 µM (≈ 0.00509 µg/mL)

O=C(NC1CCC(CO)CC1)c1cc2c(Cl)cc(Cl)cc2[nH]1 (stereo not shown) [Example 4AX, 4,6-Dichloro-N-(4-(hydroxymethyl)-cyclohexyl)-1H-indole-2-carboxamide]
MIC50: 13.5 µM (≈ 4.6 µg/mL)

COc1ccc2[nH]c(C(=O)N[C@@H]3CCCC[C@@H]3C)cc2c1 [Example 4AR, 5-Methoxy-N-((1R,2S)-2-methylcyclohexyl)-1H-indole-2-carboxamide]
MIC50: 7.53 µM (≈ 2.16 µg/mL)

C[C@H]1CC[C@H](NC(=O)c2cc3c(Cl)cc(Cl)cc3[nH]2)CC1 [Example 4S, 4,6-Dichloro-N-(trans-4-methylcyclohexyl)-1H-indole-2-carboxamide]
MIC50: 0.14 µM (≈ 0.0455 µg/mL)

Cc1cc(C)c2cc(C(=O)NC(C)CCc3ccccc3)[nH]c2c1 (stereo not shown) [Example 3E, 4,6-Dimethyl-N-(4-phenylbutan-2-yl)-1H-indole-2-carboxamide]
MIC50: 5.74 µM (≈ 1.84 µg/mL)

Cc1cc(C#N)cc2[nH]c(C(=O)N[C@@H]3CCCC[C@@H]3C)cc12 [Example 4AJ, 6-Cyano-4-methyl-N-((1R,2S)-2-methylcyclohexyl)-1H-indole-2-carboxamide]
MIC50: 0.15 µM (≈ 0.0443 µg/mL)

C[C@H]1CCCC[C@H]1NC(=O)c1cc2ccc(Br)cc2[nH]1 [Example 4AC, 6-Bromo-N-((1R,2S)-2-methylcyclohexyl)-1H-indole-2-carboxamide]
MIC50: 0.5 µM (≈ 0.168 µg/mL)

C[C@H]1CC[C@@H](NC(=O)c2cc3c(C#N)cc(C#N)cc3[nH]2)CC1 [Example 4AW, 4,6-Dicyano-N-(cis-4-methyl-cyclohexyl)-1H-indole-2-carboxamide]
MIC50: > 20 µM

Cc1cc(C)c2cc(C(=O)NC3CCCCC3C(C)C)[nH]c2c1 (stereo not shown) [Example 4O, N-(2-Isopropylcyclohexyl)-4,6-dimethyl-1H-indole-2-carboxamide]
MIC50: 0.765 µM (≈ 0.239 µg/mL)

COc1cccc2[nH]c(C(=O)N[C@@H]3CCCC[C@@H]3C)cc12 [Example 4AL, 4-Methoxy-N-((1R,2S)-2-methylcyclohexyl)-1H-indole-2-carboxamide]
MIC50: 1.59 µM (≈ 0.455 µg/mL)

Cc1cccc2[nH]c(C(=O)N[C@@H]3CCCC[C@@H]3C)cc12 [Example 4AA, 4-Methyl-N-((1R,2S)-2-methylcyclohexyl)-1H-indole-2-carboxamide]
MIC50: 0.25 µM (≈ 0.0676 µg/mL)

C[C@H]1CC[C@@H](NC(=O)c2cc3c(Cl)cc(Cl)cc3[nH]2)CC1 [Example 4R, 4,6-Dichloro-N-(cis-4-methylcyclohexyl)-1H-indole-2-carboxamide]
MIC50: 0.14 µM (≈ 0.0455 µg/mL)

Cc1cc(Br)cc2[nH]c(C(=O)N[C@@H]3CCCC[C@@H]3C)cc12 [Example 4AH, 6-Bromo-4-methyl-N-((1R,2S)-2-methylcyclohexyl)-1H-indole-2-carboxamide]
MIC50: 0.01 µM (≈ 0.00349 µg/mL)

CC1CCC(NC(=O)c2cc3c(Cl)cc(F)cc3[nH]2)CC1 (stereo not shown) [Example 4AT, 4-Chloro-6-fluoro-N-(4-methylcyclohexyl)-1H-indole-2-carboxamide]
MIC50: 0.165 µM (≈ 0.0509 µg/mL)

Cc1cc(N2CCOCC2)cc2[nH]c(C(=O)N[C@@H]3CCCC[C@@H]3C)cc12 [Example 6B, 4-Methyl-N-((1R,2S)-2-methylcyclohexyl)-6-morpholino-1H-indole-2-carboxamide]
MIC50: 14.2 µM (≈ 5.07 µg/mL)

O=C(NC1CCC(C(F)(F)F)CC1)c1cc2c(Cl)cc(Cl)cc2[nH]1 (stereo not shown) [Example 5A, 4,6-Dichloro-N-(4-(trifluoromethyl)-cyclohexyl)-1H-indole-2-carboxamide]
MIC50: 0.305 µM (≈ 0.116 µg/mL)

C[C@H]1CCCC[C@H]1NC(=O)c1cc2c(Br)cccc2[nH]1 [Example 4AB, 4-Bromo-N-((1R,2S)-2-methylcyclohexyl)-1H-indole-2-carboxamide]
MIC50: 0.29 µM (≈ 0.0972 µg/mL)

CC1CCC(NC(=O)c2cc3c(F)cc(F)cc3[nH]2)CC1 (stereo not shown) [Example 4F, 4,6-Difluoro-N-(4-methylcyclohexyl)-1H-indole-2-carboxamide]
MIC50: 0.37 µM (≈ 0.108 µg/mL)

Cc1cc(C)c2cc(C(=O)NCC3CCCCC3)[nH]c2c1 [Example 3N, N-(Cyclohexylmethyl)-4,6-dimethyl-1H-indole-2-carboxamide]
MIC50: 0.87 µM (≈ 0.247 µg/mL)

CCC(CC)NC(=O)c1cc2c(C)cc(C)cc2[nH]1 [Example 3F, 4,6-Dimethyl-N-(pentan-3-yl)-1H-indole-2-carboxamide]
MIC50: 4.33 µM (≈ 1.12 µg/mL)

Cc1cc(C)c2cc(C(=O)NCCC(C)C)[nH]c2c1 [Example 3D, N-Isopentyl-4,6-dimethyl-1H-indole-2-carboxamide]
MIC50: 3.26 µM (≈ 0.842 µg/mL)

Cc1cc(C)c2cc(C(=O)N[C@H]3CCC[C@H](C)[C@H]3C)[nH]c2c1 [Example 4E, N-((1S,2R,3S)-2,3-Dimethylcyclohexyl)-4,6-dimethyl-1H-indole-2-carboxamide]
MIC50: 0.08 µM (≈ 0.0239 µg/mL)

CCC(C)NC(=O)c1cc2c(C)cc(C)cc2[nH]1 (stereo not shown) [Example 3M, N-(sec-Butyl)-4,6-dimethyl-1H-indole-2-carboxamide]
MIC50: 9.33 µM (≈ 2.28 µg/mL)

O=C(NC1CCC(C(F)(F)F)CC1)c1cc2c(F)cc(F)cc2[nH]1 (stereo not shown) [Example 5B, 4,6-Difluoro-N-(4-(trifluoromethyl)-cyclohexyl)-1H-indole-2-carboxamide]
MIC50: 1.19 µM (≈ 0.41 µg/mL)

C[C@H]1CCCC[C@H]1NC(=O)c1cc2c(C(F)(F)F)cc(C(F)(F)F)cc2[nH]1 [Example 4BC, N-((1R,2S)-2-Methylcyclohexyl)-4,6-bis(trifluoromethyl)-1H-indole-2-carboxamide]
MIC50: 1.6 µM (≈ 0.628 µg/mL)

Cc1cc(C)c2cc(C(=O)NC3CCCCC3C)[nH]c2c1 (stereo not shown) [Example 3H, 4,6-Dimethyl-N-(2-methylcyclohexyl)-1H-indole-2-carboxamide]
MIC50: 0.32 µM (≈ 0.091 µg/mL)

COc1cc2cc(C(=O)N[C@@H]3CCCC[C@@H]3C)[nH]c2cc1OC [Example 4AQ, 5,6-Dimethoxy-N-((1R,2S)-2-methylcyclohexyl)-1H-indole-2-carboxamide]
MIC50: 19.5 µM (≈ 6.17 µg/mL)

Cc1ccc(NC(=O)c2cc3c(C)cc(C)cc3[nH]2)cc1 [Example 3K, 4,6-Dimethyl-N-(p-tolyl)-1H-indole-2-carboxamide]
MIC50: 5.64 µM (≈ 1.57 µg/mL)

N#Cc1ccc2cc(C(=O)NC3CCCCC3)[nH]c2c1 [Example 4AF, 6-Cyano-N-cyclohexyl-1H-indole-2-carboxamide]
MIC50: 2.27 µM (≈ 0.608 µg/mL)

C[C@H]1CC[C@H](NC(=O)c2cc3c(C#N)cc(C#N)cc3[nH]2)CC1 [Example 4AV, 4,6-Dicyano-N-(trans-4-methylcyclohexyl)-1H-indole-2-carboxamide]
MIC50: 0.225 µM (≈ 0.0689 µg/mL)

CC1CCC(NC(=O)c2cc3ccc(Cl)cc3[nH]2)CC1 (stereo not shown) [Example 4V, 6-Chloro-N-(4-methylcyclohexyl)-1H-indole-2-carboxamide]
MIC50: 0.2 µM (≈ 0.0582 µg/mL)

CC1CCC(NC(=O)c2cc3c(Cl)ccc(Cl)c3[nH]2)CC1 (stereo not shown) [Example 4U, 4,7-Dichloro-N-(4-methylcyclohexyl)-1H-indole-2-carboxamide]
MIC50: 8.42 µM (≈ 2.74 µg/mL)

C[C@H]1CCCC[C@H]1NC(=O)c1cc2ccc(F)cc2[nH]1 [Example 4AZ, 6-Fluoro-N-((1R,2S)-2-methylcyclohexyl)-1H-indole-2-carboxamide]
MIC50: 1.35 µM (≈ 0.37 µg/mL)

CCNc1cc(C)c2cc(C(=O)N[C@@H]3CCCC[C@@H]3C)[nH]c2c1 [Example 6D, 6-(Ethylamino)-4-methyl-N-((1R,2S)-2-methylcyclohexyl)-1H-indole-2-carboxamide]
MIC50: 4.86 µM (≈ 1.52 µg/mL)

Cc1cc(C)c2cc(C(=O)Nc3ccc(C(C)C)cc3)[nH]c2c1 [Example 3A, N-(4-Isopropylphenyl)-4,6-dimethyl-1H-indole-2-carboxamide]
MIC50: 8.67 µM (≈ 2.66 µg/mL)

Cc1cc(C)c2cc(C(=O)NC3CCCCC3C#N)[nH]c2c1 (stereo not shown) [Example 4Q, N-(2-Cyanocyclohexyl)-4,6-dimethyl-1H-indole-2-carboxamide]
MIC50: 2.06 µM (≈ 0.608 µg/mL)

CC1CCC(NC(=O)c2cc3ccc(F)cc3[nH]2)CC1 (stereo not shown) [Example 4BF, 6-Fluoro-N-(4-methylcyclohexyl)-1H-indole-2-carboxamide]
MIC50: 1.62 µM (≈ 0.444 µg/mL)

Cc1cc(C)c2cc(C(=O)Nc3ccc(F)cc3)[nH]c2c1 [Example 3C, N-(4-Fluorophenyl)-4,6-dimethyl-1H-indole-2-carboxamide]
MIC50: 2.45 µM (≈ 0.692 µg/mL)

CCC(C)CNC(=O)c1cc2c(C)cc(C)cc2[nH]1 (stereo not shown) [Example 3I, 4,6-Dimethyl-N-(2-methylbutyl)-1H-indole-2-carboxamide]
MIC50: 2.48 µM (≈ 0.641 µg/mL)

C[C@H]1CCCC[C@H]1NC(=O)c1cc2cc3c(cc2[nH]1)OCO3 [Example 4AP, N-((1R,2S)-2-Methylcyclohexyl)-5H-[1,3]dioxolo[4,5-f]indole-6-carboxamide]
MIC50: 2.13 µM (≈ 0.64 µg/mL)

COC1CCCCC1NC(=O)c1cc2c(C)cc(C)cc2[nH]1 (stereo not shown) [Example 4N, N-(2-Methoxycyclohexyl)-4,6-dimethyl-1H-indole-2-carboxamide]
MIC50: 5.78 µM (≈ 1.74 µg/mL)

Cc1cc(C)c2cc(C(=O)NC3CCCCC3O)[nH]c2c1 (stereo not shown) [Example 4L, N-(2-Hydroxycyclohexyl)-4,6-dimethyl-1H-indole-2-carboxamide]
MIC50: 2.92 µM (≈ 0.837 µg/mL)

C[C@H]1CCCC[C@H]1NC(=O)c1cc2c(F)cc(F)cc2[nH]1 [Example 4BA, 4,6-Difluoro-N-((1R,2S)-2-methylcyclohexyl)-1H-indole-2-carboxamide]
MIC50: 0.28 µM (≈ 0.0819 µg/mL)

N#Cc1ccc2cc(C(=O)NC3CCC(F)(F)CC3)[nH]c2c1 [Example 4AG, 6-Cyano-N-(4,4-difluorocyclohexyl)-1H-indole-2-carboxamide]
MIC50: 3.36 µM (≈ 1.02 µg/mL)

Cc1cc(C)c2cc(C(=O)N[C@H]3CC[C@H](C(C)C)CC3)[nH]c2c1 [Example 4D, N-(trans-4-Isopropylcyclohexyl)-4,6-dimethyl-1H-indole-2-carboxamide]
MIC50: 0.03 µM (≈ 0.00937 µg/mL)
